The values that follow come from patent publication US10669272B2, “Substituted naphthyridinone compounds useful as T cell activators” (BRISTOL-MYERS SQUIBB COMPANY, priority 2018, dated 2020).

The target of one assay is T1, human DGKα (Homo sapiens, UniProt P23743).
T1 construct: TVMV protease cleavage site (C); Hexa-His (C); made in house; host or cells: Sf9 insect cells (baculovirus, Bac-to-Bac)
Briefly: DGKα LIPGLO assay (extruded liposome substrate), in vitro DGK inhibition. Format: biochemical. The note with it: liposome (LIPGLO) assay; read-out: DGKa LIPGLO IC50.

The next assay deals with T2, human DGKζ (Homo sapiens, UniProt Q13574).
T2 construct: TVMV protease cleavage site (C); Hexa-His (C); made in house; host or cells: Sf9 insect cells (baculovirus, Bac-to-Bac)
T2 sequence (Q13574 with tags, fused parts or gaps isoform Q13574-4): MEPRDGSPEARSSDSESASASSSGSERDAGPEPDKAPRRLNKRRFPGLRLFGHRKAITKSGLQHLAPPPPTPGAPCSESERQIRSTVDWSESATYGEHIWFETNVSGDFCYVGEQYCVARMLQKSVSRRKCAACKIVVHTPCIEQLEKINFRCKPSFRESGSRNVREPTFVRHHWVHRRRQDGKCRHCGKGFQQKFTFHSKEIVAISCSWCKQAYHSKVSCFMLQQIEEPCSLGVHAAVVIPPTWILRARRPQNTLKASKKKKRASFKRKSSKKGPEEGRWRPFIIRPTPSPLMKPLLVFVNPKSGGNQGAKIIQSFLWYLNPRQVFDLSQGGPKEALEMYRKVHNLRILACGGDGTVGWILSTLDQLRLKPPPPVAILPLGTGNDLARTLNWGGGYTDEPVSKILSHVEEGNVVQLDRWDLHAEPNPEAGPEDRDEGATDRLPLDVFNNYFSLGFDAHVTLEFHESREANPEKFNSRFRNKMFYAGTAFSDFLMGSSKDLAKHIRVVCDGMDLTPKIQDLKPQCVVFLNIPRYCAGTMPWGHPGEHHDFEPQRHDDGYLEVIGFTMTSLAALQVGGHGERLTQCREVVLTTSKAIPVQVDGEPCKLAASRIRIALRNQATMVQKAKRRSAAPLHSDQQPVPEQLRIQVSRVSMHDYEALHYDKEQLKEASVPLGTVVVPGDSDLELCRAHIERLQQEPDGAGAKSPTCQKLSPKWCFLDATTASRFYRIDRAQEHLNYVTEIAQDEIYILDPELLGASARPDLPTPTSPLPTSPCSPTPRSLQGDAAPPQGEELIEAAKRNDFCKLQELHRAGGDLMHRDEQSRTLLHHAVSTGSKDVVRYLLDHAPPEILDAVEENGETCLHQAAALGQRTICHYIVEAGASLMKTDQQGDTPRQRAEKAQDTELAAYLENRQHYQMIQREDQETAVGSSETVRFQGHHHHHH
Briefly: DGKζ LIPGLO assay (extruded liposome substrate), in vitro DGK inhibition. Format: biochemical. The note with it: liposome (LIPGLO) assay; read-out: DGKz LIPGLO IC50.

Assay [1] has as its system OT-1 CD8+ T cells with SIINFEKL-loaded MC38 tumor cells. Briefly: Murine cytotoxic T lymphocyte assay (IFN-γ, OT-1 CTL with MC38 tumor cells). In kind it is cell-based, mouse. Particulars: read-out: msCTL INFg IC50. The method in brief:
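IFN-γ was quantified by AlphaLISA in supernatants after 24 h co-culture at 37° C. Effectors were OT-1 CD8+ CTLs (5-day peptide/mIL2 expansion), exposed 1 h to DGK inhibitors before mixing 1:10 with MC38 tumor cells loaded 3 h with 1 μg/mL SIINFEKL peptide.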

The next assay has as its system naïve human CD8 T cells. As to the kind of experiment: Human CD8 T cells IFN-γ assay.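 Note: Naïve human CD8 T cells stimulated with plate-bound anti-CD3 and soluble anti-CD28, IFN-γ in supernatant quantified by AlphaLISA and converted to pg/mL.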 In kind it is cell-based. The note with it: normalized to 3 μM reference compound with anti-CD3 plus anti-CD28 as 100% activation, read-out: HuCD8 INFG Normalized EC50.
In the next assay the test system is Human venous whole blood. Briefly: Human whole blood IFN-γ assay.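 Note: blood from healthy donors exposed to compound for 1 h before stimulation with anti-CD3 and anti-CD28 at 1 µg/mL each, IFN-γ quantified in supernatant by AlphaLISA.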 Format: cell-based. The note with it: human whole blood, normalized to 3 μM reference compound with anti-CD3 plus anti-CD28 as 100% activation, read-out: INFg Whole Blood Normalized Agonist EC50.

SMILES strings stand for the structures. Like-named read-outs stand apart in the source and are kept apart here.

T1 sequence (P23743 with tags, fused parts or gaps): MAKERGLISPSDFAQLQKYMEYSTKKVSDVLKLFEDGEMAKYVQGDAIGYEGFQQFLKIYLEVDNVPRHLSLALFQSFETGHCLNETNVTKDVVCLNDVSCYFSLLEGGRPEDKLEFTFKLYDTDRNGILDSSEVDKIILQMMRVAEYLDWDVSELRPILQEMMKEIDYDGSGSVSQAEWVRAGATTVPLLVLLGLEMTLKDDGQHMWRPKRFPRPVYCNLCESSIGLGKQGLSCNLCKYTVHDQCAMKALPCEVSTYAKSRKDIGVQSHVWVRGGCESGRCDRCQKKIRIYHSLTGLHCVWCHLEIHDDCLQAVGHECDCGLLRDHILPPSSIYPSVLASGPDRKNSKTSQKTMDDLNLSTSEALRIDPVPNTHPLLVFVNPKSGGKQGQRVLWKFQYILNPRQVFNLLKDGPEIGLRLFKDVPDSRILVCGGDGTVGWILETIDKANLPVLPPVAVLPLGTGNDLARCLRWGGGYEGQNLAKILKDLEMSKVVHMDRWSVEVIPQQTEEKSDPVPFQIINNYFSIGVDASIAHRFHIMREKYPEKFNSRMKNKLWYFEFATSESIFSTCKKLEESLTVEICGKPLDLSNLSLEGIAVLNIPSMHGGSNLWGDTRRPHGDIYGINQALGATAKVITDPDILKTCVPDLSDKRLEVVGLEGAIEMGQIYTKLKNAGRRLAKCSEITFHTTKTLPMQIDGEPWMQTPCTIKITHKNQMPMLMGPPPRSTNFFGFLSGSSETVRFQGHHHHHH
Description for Human venous whole blood: Human Whole Blood IFN-γ Assay
Human venous whole blood (22.5 μL per well), obtained from healthy donors, was pre-treated with compounds for one hour at 37° C. in a humidified 95% air/5% CO2 incubator. The blood was stimulated with 2.5 μL anti-human CD3 and anti-CD28 mAb at a final concentration of 1 μg/mL each for 24 hours at 37° C. IFN-γ in the supernatants was measured using AlphLISA kit (Cat # AL217).

For the molecule `COC(=O)C1CN(c2c(C#N)c(=O)n(C)c3ccc(C#N)nc23)CCN1C(c1ccc(F)cc1)c1ccc(F)cc1` (single isomer, unassigned) [Example 50, methyl 1-(bis(4-fluorophenyl)methyl)-4-(3,6-dicyano-1-methyl-2-oxo-1,2-dihydro-1,5-naphthyridin-4-yl)piperazine-2-carboxylate], the IC50 on human DGKα stood at 2200 nM; on human DGKζ, 750 nM; in assay [1], 150 nM. Besides, the EC50 in the assay with naïve human CD8 T cells came out at 72 nM; in the assay with Human venous whole blood (Homo sapiens, 24 h) it was 1500 nM.

For `C[C@@H]1CN(c2cc(=O)n(C)c3ccc(C#N)nc23)CCN1C(c1ccc(Cl)cc1)c1ccc(Cl)cc1` [Example 104, (R)-8-(4-(bis(4-chlorophenyl)methyl)-3-methylpiperazin-1-yl)-5-methyl-6-oxo-5,6-dihydro-1,5-naphthyridine-2-carbonitrile, dimethylformamide], the half-maximal inhibitory concentration (IC50) on human DGKα was 4400 nM; on human DGKζ, 4400 nM; in assay [1] (Mus musculus, MC-38) it was 560 nM. The EC50 with naïve human CD8 T cells (Homo sapiens, T-cell, 20 h) was determined as 180 nM; in the assay with Human venous whole blood (Homo sapiens, 24 h), 6500 nM.

`CC(C)[C@@H]1CN(C(c2ccc(F)cc2)c2ccc(F)cc2)CCN1c1cc(=O)n(C)c2ccc(C#N)nc12` [Example 181, (R)-8-(4-(bis(4-fluorophenyl)methyl)-2-isopropylpiperazin-1-yl)-5-methyl-6-oxo-5,6-dihydro-1,5-naphthyridine-2-carbonitrile]: the half-maximal inhibitory concentration (IC50) was 240000 nM on human DGKα; 240000 nM on human DGKζ; 10000 nM in assay [1] (Mus musculus, MC-38). Also, the EC50 with naïve human CD8 T cells (Homo sapiens, T-cell, 20 h) turned out to be 10000 nM; in the assay with Human venous whole blood (Homo sapiens, 24 h) it was 20000 nM.

Turning to `Cn1c(=O)cc(N2CCN(C(c3ccc(F)cc3)c3ccc(F)cc3)C(C#N)C2)c2nc(C#N)ccc21` (single isomer, unassigned) [Example 44, 8-(4-(bis(4-fluorophenyl)methyl)-3-cyanopiperazin-1-yl)-5-methyl-6-oxo-5,6-dihydro-1,5-naphthyridine-2-carbonitrile], the IC50 on human DGKα came out at 2900 nM; at human DGKζ, 5500 nM; in assay [1] (Mus musculus, MC-38), 590 nM. For the same molecule, the EC50 with naïve human CD8 T cells (Homo sapiens, T-cell, 20 h) turned out to be 460 nM; in the assay on Human venous whole blood (Homo sapiens, 24 h), 3900 nM.

On to `CC[C@@H]1CN(c2c(C#N)c(=O)n(C)c3ccc(C#N)nc23)CCN1C(c1ccc(F)cc1)c1ccc(F)cc1` [Example 173, (R)-8-(4-(bis(4-fluorophenyl)methyl)-3-ethylpiperazin-1-yl)-5-methyl-6-oxo-5,6-dihydro-1,5-naphthyridine-2,7-dicarbonitrile], for which the concentration for half-maximal inhibition (IC50) is 950 nM at human DGKα; 1400 nM on human DGKζ; 45 nM in assay [1] (Mus musculus, MC-38). The 50% effective concentration (EC50) came out at 25 nM in the assay with naïve human CD8 T cells (Homo sapiens, T-cell, 20 h) and 990 nM in the assay on Human venous whole blood (Homo sapiens, 24 h).

For `CC[C@@H]1CN(c2c(Cl)c(=O)n(C)c3ccc(C#N)nc23)CCN1C(c1ccc(Cl)cc1)c1ccc(Cl)cc1` [Example 177, (R)-8-(4-(bis(4-chlorophenyl)methyl)-3-ethylpiperazin-1-yl)-7-chloro-5-methyl-6-oxo-5,6-dihydro-1,5-naphthyridine-2-carbonitrile], the IC50 on human DGKα is 5500 nM; at human DGKζ it was 2700 nM; in assay [1] (Mus musculus, MC-38), 870 nM. The EC50 turned out to be 130 nM in the assay with naïve human CD8 T cells (Homo sapiens, T-cell, 20 h) and 5000 nM in the assay with Human venous whole blood (Homo sapiens, 24 h).

`COCC1CN(c2cc(=O)n(C)c3ccc(C#N)nc23)CCN1C(c1ccc(F)cc1)c1ccc(F)cc1` (single isomer, unassigned) [Example 93, 8-(4-(bis(4-fluorophenyl)methyl)-3-(methoxymethyl)piperazin-1-yl)-5-methyl-6-oxo-5,6-dihydro-1,5-naphthyridine-2-carbonitrile]: the IC50 worked out at 4300 nM on human DGKα, 680 nM on human DGKζ and 81 nM in assay [1]. Moreover, the EC50 was 63 nM in the assay on naïve human CD8 T cells and 1400 nM with Human venous whole blood.

With `CC[C@@H]1CN(c2cc(=O)n(C)c3ccc(C#N)nc23)CCN1C(c1ccc(F)cc1)c1ccc(F)cc1` [Example 172, (R)-8-(4-(bis(4-fluorophenyl)methyl)-3-ethylpiperazin-1-yl)-5-methyl-6-oxo-5,6-dihydro-1,5-naphthyridine-2-carbonitrile], the IC50 at human DGKα was found to be 1900 nM; on human DGKζ it was 1400 nM; in assay [1] (Mus musculus, MC-38), 39 nM. Further, the EC50 was determined as 36 nM with naïve human CD8 T cells (Homo sapiens, T-cell, 20 h) and 1300 nM in the assay with Human venous whole blood (Homo sapiens, 24 h).

Take `C[C@@H]1CN(c2cc(=O)n(C)c3ccc(C#N)nc23)[C@@H](C)CN1C(c1ccc(F)cc1)c1ccc(C#N)cc1` (single isomer, unassigned) [Example 306]: the half-maximal inhibitory concentration (IC50) at human DGKα is 470 nM; on human DGKζ, 1300 nM; in assay [1] (Mus musculus, MC-38) it was 53 nM. The 50% effective concentration (EC50) in the assay with naïve human CD8 T cells (Homo sapiens, T-cell, 20 h) is 54 nM; with Human venous whole blood (Homo sapiens, 24 h), 530 nM.

Turning to `CC[C@@H]1CN(c2c(Cl)c(=O)n(C)c3ccc(C#N)nc23)CCN1C(c1ccc(F)cc1)c1ccc(F)cc1` [Example 175, (R)-8-(4-(bis(4-fluorophenyl)methyl)-3-ethylpiperazin-1-yl)-7-chloro-5-methyl-6-oxo-5,6-dihydro-1,5-naphthyridine-2-carbonitrile], the IC50 on human DGKα stood at 2400 nM; on human DGKζ it was 330 nM; in assay [1] (Mus musculus, MC-38), 610 nM. The EC50 with naïve human CD8 T cells (Homo sapiens, T-cell, 20 h) was 51 nM; in the assay with Human venous whole blood (Homo sapiens, 24 h), 4300 nM.

Regarding `COc1ncccc1C(c1ccc(F)cc1)N1C[C@H](C)N(c2cc(=O)n(C)c3ccc(C#N)nc23)C[C@H]1C` (single isomer, unassigned) [Example 210], the IC50 at human DGKα came out at 14000 nM; at human DGKζ it was 260 nM; in assay [1] (Mus musculus, MC-38), 120 nM. Besides, the EC50 in the assay on naïve human CD8 T cells worked out at 130 nM; in the assay on Human venous whole blood, 1100 nM.

Take `C[C@@H]1CN(c2c(C3CC3)c(=O)n(C)c3ccc(C#N)nc23)[C@@H](C)CN1C(c1ccc(F)cc1)c1ccc(F)cc1` [Example 20, 8-((2S,5R)-4-(bis(4-fluorophenyl)methyl)-2,5-dimethylpiperazin-1-yl)-7-cyclopropyl-5-methyl-6-oxo-5,6-dihydro-1,5-naphthyridine-2-carbonitrile]: the half-maximal inhibitory concentration (IC50) was determined as 95000 nM at human DGKα; 130000 nM at human DGKζ; 10000 nM in assay [1] (Mus musculus, MC-38). Moreover, the EC50 was 10000 nM with naïve human CD8 T cells (Homo sapiens, T-cell, 20 h) and 20000 nM in the assay with Human venous whole blood (Homo sapiens, 24 h).

In general, IC50 refers to the point on the concentration scale where inhibition reaches its midpoint. One may read the EC50 as the midpoint of the concentration-response curve.
